Reference: patent US9603877B2, “Isolated nucleotide molecule and method of sensing and killing of pathogenic microorganism” (priority 2011, dated 2017)

What was measured:
[1] = biological target: T1, Pseudomonas aeruginosa LasR, SEQ ID NO: 1 (UniProt: PSPA7_3898), in sensing device pTetR-LasR-pLuxR-GFP (Pseudomonas aeruginosa, UniProt P25084); assay: Characterization/transfer function of the LasR sensing device (pTetR-LasR-pLuxR-GFP) with 3OC12HSL, GFP reporter in E. coli TOP10; assay type: cell-based, P. aeruginosa
T1 construct: expressed in transfected cells; host or cells: E. coli TOP10 (plasmid pTetR-LasR-pLuxR-GFP in pSB1A2)
T1 sequence (P25084 whole entry M144I): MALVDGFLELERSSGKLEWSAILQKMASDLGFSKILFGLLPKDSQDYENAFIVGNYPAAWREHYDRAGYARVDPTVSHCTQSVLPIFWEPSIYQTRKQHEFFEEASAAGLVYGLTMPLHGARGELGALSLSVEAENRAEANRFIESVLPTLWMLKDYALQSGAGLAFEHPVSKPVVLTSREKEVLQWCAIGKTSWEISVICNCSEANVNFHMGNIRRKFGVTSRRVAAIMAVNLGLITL
Procedure: Single colonies of pTetR-LasR-pLuxR-GFP (Top10) were each inoculated into 5 ml of pre-warmed supplemented M9 ampicillin for overnight culture in a shaking incubator at 37° C. After overnight growth, the cultures were diluted to OD600 of 0.002 and allowed to incubate further to OD600 of 0.5 or 5.0E7 cfu/ml under the same condition. […] The plate was incubated at 37° C. with rapid shaking in a microplate reader (Biotek) and assayed for green fluorescence. Time-series fluorescence and OD600 data were obtained at intervals of 10 mins for a total run time of 3 hrs. The measurement was zeroed with supplemented M9 to remove background fluorescence and OD600. A relative GFP production rate was derived as a ratio of background subtracted green fluorescence to OD600 value.
The four parameters (A, B, C, n) were estimated to obtain the best fit curve by performing a non-linear curve fitting using the experimental results. This curve fitting was performed using MATLAB Curve Fitting Toolbox (The Mathworks, Natwick, Mass., USA).

[2] = test system: E. coli carrying pTetR-LasR-pLuxR-E7; assay: Characterization of lysis device with 3OC12HSL (OD600 of E. coli carrying pTetR-LasR-pLuxR-E7); assay type: cell-based
Procedure: Characterization of Lysis Device with 3OC12HSL
Overnight cultures of pTetR-LasR-pLuxR-E7 (Top10) were diluted in supplemented M9 and harvested at an OD600 of 0.5. […] The plate was incubated at 37° C. with rapid shaking in a microplate reader (Biotek) and assayed for cell turbidity. Time-series absorbance at OD600 was obtained at intervals of 10 mins for a total run time of 6 hrs. The result was zeroed with supplemented M9 to remove background absorbance.
The system according to various embodiments was designed to release pyocin S5 through lysis upon detection of P. aeruginosa. To determine the lysis activity of the system, the behavior of the E7 lysis protein under the transcriptional control of the sensing device before integrating both the pyocin S5 and E7 genes into the system was characterized. […] To further confirm that the lysis activity may be sustained in the final system including pyocin S5, the morphology of E. coli containing the final system (i.e., pTetR-LasR-pLuxR-S5-pLuxR-E7; FIG. 1B) was monitored using FESEM.

In the case of `CCCCCCCCCC(=O)CC(=O)N[C@H]1CCOC1=O` [3OC12HSL, N-3-oxododecanoyl homoserine lactone], the “input concentration at which the sensing device saturated” value ([1]; Hill model, >3.3E-7M but <1.0E-6M) was > 330 nM, the “maximum output (GFP production rate) at saturation” value ([1]; Hill model, input concentration >3.3E-7M but <1.0E-6M) was 1.96 RFU per OD per minute and the “concentration at which GFP production rate peaked” value ([1]; sharp increase beyond 1.0E-7M, sharp decline after peak) was 1000 nM. The “growth/lysis of E. coli (OD600) at 1.0E-6 and 1.0E-4M 3OC12HSL” value ([2]; 1.0E-6 and 1.0E-4M 3OC12HSL) was “significant reduction in optical density”, the “growth/lysis of E. coli (OD600) at 1.0E-8M 3OC12HSL” value ([2]; 1.0E-8M 3OC12HSL) was “no noticeable transition into a lysis state” and the minimal effective concentration ([2]; Escherichia coli, 2 h, read-out: concentration causing observable cell lysis) was ≥ 1 µM.
